Assay results from publication PMC11234460, “In Silico Discovery of Stapled Peptide Inhibitor Targeting the Nur77‐PPARγ Interaction and Its Anti‐Breast‐Cancer Efficacy” (Advanced Science, 2024).
Where a SMILES comes first, the peptide text is derived from it. Bridges are numbered along the chain shown (N, C = ends). [ ]: non-standard residue; d: D form. S5 = C=CCCC[C@](C)(N)C(=O)O

Tests used:
Solubility test in PBS = type: physicochemical; conditions: PBS buffer, aqueous buffer, 1 mg in 50 µL, gradient diluted from 20 to 0.078125 mg mL^−1, OD at 600 nm (turbidity), plate reader
Method: Mix 1 mg ST‐CY14 or Csn‐B (Shanghai Sunny Biotech) in 50 µL PBS buffer, and then transfer 40 µL the suspension to a 96‐well plate. The suspension was gradient diluted from 20 to 0. 07 8125 mg mL^−1. OD values were measured at 600 nm on a Cytation 5 (Biotek, USA) plate reader. PBS was set as a blank control.

MDA-BoM-1833 cells = assay: Cell viability assay (CCK-8); type: cell-based; conditions: MDA-BoM-1833, 5 × 10^−6 M, 24 h
Method: MCF7, MDA‐MB‐231, and MDA‐BoM‐1833 cells (5000 cells/well) were seeded in 96‐well plates and cultured overnight at 37°C and 5% CO2. The cells were then treated with fresh basic medium containing various concentrations (1/2/5/10/20 × 10^−6 M) of compounds. After 24 h of incubation, the cells were incubated with a basic medium containing 10% Cell Counting Kit‐8 (Dojindo, CK‐04) for 2 h. Cell viability was evaluated by measuring the absorbance at 450 nm. The formula used was [(As‐Ab)/(Ac‐Ab)] × 100%, where as represents the absorbance of the drug‐treated group, Ac represents the absorbance of the control group treated with medium, and Ab represents the absorbance of the blank control containing only medium.

[1] = tested on: mutated Nur77-EGFP (Gln571, Glu398, Phe598); assay: MST with mutated Nur77-EGFP in HEK293T cell lysate; type: binding; conditions: Nur77 mutated at Gln571, Glu398 and Phe598, Monolith NT.115, 40% MST power
Method: The MST measure for the affinity of the peptide with purified Nur77 LBD protein was performed by Dianthus (Nano Temper). First, 1 × 10^−5 M protein was labeled with fluorescent dye and incubated with variable concentrations (0.1/0.4/0.8/1.6/3.1/6.3/12.5/25/50/100 × 10^−6 M) of peptides in PBST (containing 0.05% Tween‐20) (v/v, 10 µL: 10 µL). Incubated at room temperature away from light for 20 min, the mixture was loaded into the capillary and scanned. The MST measure for the affinity of the peptide with mutated Nur77‐EGFP was performed by Monolith NT.115 (Nano Temper). The HEK293T cell lysate was collected after transfection with the mutated Nur77‐EGFP plasmid for 48 h. The level of mutated Nur77‐EGFP was verified by the detection of fluorescence intensity. Different concentrations (0.1/0.4/0.8/1.6/3.1/6.3/12.5/25/50/100 × 10^−6 M) of ST‐CY14 were mixed with the cell lysate (v/v, 5 µL:5 µL) and incubated for 20 min. The measurement was carried out at 40% MST power.

[2] = tested on: MDA-MB-231-GFP tumor tissue; assay: Transcriptome analysis of xenograft tumor tissue; type: in vivo, mouse; conditions: 10 mg group
Method: To establish the bone metastasis tumor model, 1×10^5 cells were injected into the left ventricle of each mouse (7–8 weeks old), and surgery was monitored using a cardiac ultrasound instrument. The mice were randomly divided into three groups and treated with PBS (control group, n = 6), 5 mg kg^−1 ST‐CY14 (n = 6), and 10 mg kg^−1 ST‐CY14 (n = 6) Tumor cell metastasis was monitored using an in vivo imaging instrument (IVIS Spectrum, PerkinElmer, USA). by intraperitoneal injection of 20 mg kg^−1 D‐luciferin. The mice were treated with ST‐CY14 via intravenous injection using a 100 µL PBS solution every 2 days starting on the designated day after tumor cell injection. Bone tissue with MDA‐BoM‐1833 cell metastasis was obtained and stained for TRAP. The mice sera were collected and analyzed for BSP and β‐CTx levels using ELISA (Lengton, BPE10823, BPE10438). For the orthotopic xenograft tumor model, 3×10^6 cells were injected into the fourth pair of breast pads on the left side of the mouse (4–5 weeks old). The mice were treated with ST‐CY14 every two days once the tumor volume reached 30–50 mm^3, with the same groups as in the bone metastasis tumor model. The tumors were collected and stained for H&E, Ki‐67, and TUNEL assays, which were conducted by Wuhan Servicebio Technology Co., Ltd. Major organs (heart, liver, spleen, lung, and kidney) were also collected for H&E analysis by Wuhan Servicebio Technology Co., Ltd. The Transcriptome and LC/MS targeted lipid metabolome were sequenced by OE Biotech, Inc., Shanghai, China. To evaluate the efficacy of Csn‐B in inhibiting breast cancer bone metastasis, an animal model was established as described above. The mice were randomly divided into three groups and treated with PBS (control group, n = 6), 10 mg kg^−1 ST‐CY14 (n = 6) in 100 µL PBS solution, and 5 mg kg^−1 ST‐CY14 (n = 6) in a 100 µL mixed solution (5% DMSO, 20% PEG 400, 5% Tween 80, and 70% normal saline) via intravenous injection every 2 days starting on the designated day after tumor cell injection.

C[C@@H](O)[C@@H]1NC(=O)[C@H](CCCNC(=N)N)NC(=O)[C@H](CCCNC(=N)N)NC(=O)[C@@](C)(NC(=O)[C@H](Cc2ccccc2)NC(=O)CNC(=O)[C@H](CCCCN)NC(=O)[C@H](CS)NC(=O)CNC(=O)[C@H](CCC(=O)O)NC(=O)[C@@H](N)CS)CCCC=CCCC[C@@](C)(C(=O)N[C@@H](CCCNC(=N)N)C(=O)N[C@@H](Cc2ccc(O)cc2)C(=O)N[C@@H](Cc2ccc(O)cc2)C(=O)NCC(=O)N[C@@H](CCCNC(=N)N)C(=O)N[C@@H](CCCCN)C(=O)N[C@@H](CCCCN)C(=O)N[C@@H](CCCNC(=N)N)C(=O)N[C@@H](CCCNC(=N)N)C(=O)N[C@@H](CCC(N)=O)C(=O)N[C@@H](CCCNC(=N)N)C(=O)N[C@@H](CCCNC(=N)N)C(=O)N[C@@H](CCCNC(=N)N)C(N)=O)NC1=O [ST-CY14] (H-CEGCKGF[S5]RRT[S5]RYYGRKKRRQRRR-NH2; staple 8-12)
solubility (Solubility test in PBS): > 20 mg/mL | Cell viability / proliferation (MDA-BoM-1833 cells): significantly attenuated breast tumor cell proliferation | Interaction with mutated Nur77 (MST) [1]: disrupted the interaction | AGT expression in tumor tissue (transcriptome) ([2]; sample 1): 0.07902 | ANGPTL4 expression in tumor tissue (transcriptome) ([2]; sample 1): 3.636 | CD36 expression in tumor tissue (transcriptome) ([2]; sample 1): 0 | CD74 expression in tumor tissue (transcriptome) ([2]; sample 1): 0.3461 | CNR1 expression in tumor tissue (transcriptome) ([2]; sample 1): 0.02158 | CYP3A5 expression in tumor tissue (transcriptome) ([2]; sample 1): 0.3686 | FABP4 expression in tumor tissue (transcriptome) ([2]; sample 1): 0.03159 | INSL5 expression in tumor tissue (transcriptome) ([2]; sample 1): 0 | ITGAL expression in tumor tissue (transcriptome) ([2]; sample 1): 0.005294 | OAS1 expression in tumor tissue (transcriptome) ([2]; sample 1): 0.1526 | OLAH expression in tumor tissue (transcriptome) ([2]; sample 1): 0.7465 | PLIN1 expression in tumor tissue (transcriptome) ([2]; sample 1): 0.1271 | POLR2J3 expression in tumor tissue (transcriptome) ([2]; sample 1): 0.1542 | PTPRC expression in tumor tissue (transcriptome) ([2]; sample 1): 0.09088 | PYY expression in tumor tissue (transcriptome) ([2]; sample 1): 0.3061 | RNF152 expression in tumor tissue (transcriptome) ([2]; sample 1): 0.2243 | SLX1B expression in tumor tissue (transcriptome) ([2]; sample 1): 0.4199 | UTS2B expression in tumor tissue (transcriptome) ([2]; sample 1): 0.2634 | VAMP7 expression in tumor tissue (transcriptome) ([2]; sample 1): 0.394 | ZNF404 expression in tumor tissue (transcriptome) ([2]; sample 1): 0.5136 | ZNF429 expression in tumor tissue (transcriptome) ([2]; sample 1): 0.01399 | AGT expression in tumor tissue (transcriptome) ([2]; sample 2): 0.282 | ANGPTL4 expression in tumor tissue (transcriptome) ([2]; sample 2): 6.216 | CD36 expression in tumor tissue (transcriptome) ([2]; sample 2): 0.00582 | CD74 expression in tumor tissue (transcriptome) ([2]; sample 2): 0.2008 | CNR1 expression in tumor tissue (transcriptome) ([2]; sample 2): 0.02567 | CYP3A5 expression in tumor tissue (transcriptome) ([2]; sample 2): 0.2054 | FABP4 expression in tumor tissue (transcriptome) ([2]; sample 2): 0 | INSL5 expression in tumor tissue (transcriptome) ([2]; sample 2): 1.442 | ITGAL expression in tumor tissue (transcriptome) ([2]; sample 2): 0 | OAS1 expression in tumor tissue (transcriptome) ([2]; sample 2): 0.4448 | OLAH expression in tumor tissue (transcriptome) ([2]; sample 2): 0.9577 | PLIN1 expression in tumor tissue (transcriptome) ([2]; sample 2): 0.01163 | POLR2J3 expression in tumor tissue (transcriptome) ([2]; sample 2): 0.3872 | PTPRC expression in tumor tissue (transcriptome) ([2]; sample 2): 0.01081 | PYY expression in tumor tissue (transcriptome) ([2]; sample 2): 1.722 | RNF152 expression in tumor tissue (transcriptome) ([2]; sample 2): 0.1875 | SLX1B expression in tumor tissue (transcriptome) ([2]; sample 2): 0.5583 | UTS2B expression in tumor tissue (transcriptome) ([2]; sample 2): 0.2673 | VAMP7 expression in tumor tissue (transcriptome) ([2]; sample 2): 0.4688 | ZNF404 expression in tumor tissue (transcriptome) ([2]; sample 2): 0.685 | ZNF429 expression in tumor tissue (transcriptome) ([2]; sample 2): 0.06657 | AGT expression in tumor tissue (transcriptome) ([2]; sample 3): 0.02516 | ANGPTL4 expression in tumor tissue (transcriptome) ([2]; sample 3): 3.683 | CD36 expression in tumor tissue (transcriptome) ([2]; sample 3): 0.004672 | CD74 expression in tumor tissue (transcriptome) ([2]; sample 3): 0.1451 | CNR1 expression in tumor tissue (transcriptome) ([2]; sample 3): 0.07831 | CYP3A5 expression in tumor tissue (transcriptome) ([2]; sample 3): 0.312 | FABP4 expression in tumor tissue (transcriptome) ([2]; sample 3): 0.06034 | INSL5 expression in tumor tissue (transcriptome) ([2]; sample 3): 0.1867 | ITGAL expression in tumor tissue (transcriptome) ([2]; sample 3): 0 | OAS1 expression in tumor tissue (transcriptome) ([2]; sample 3): 0.2478 | OLAH expression in tumor tissue (transcriptome) ([2]; sample 3): 1.048 | PLIN1 expression in tumor tissue (transcriptome) ([2]; sample 3): 0 | POLR2J3 expression in tumor tissue (transcriptome) ([2]; sample 3): 0.1963 | PTPRC expression in tumor tissue (transcriptome) ([2]; sample 3): 0.04774 | PYY expression in tumor tissue (transcriptome) ([2]; sample 3): 0.5582 | RNF152 expression in tumor tissue (transcriptome) ([2]; sample 3): 0.2258 | SLX1B expression in tumor tissue (transcriptome) ([2]; sample 3): 0.5662 | UTS2B expression in tumor tissue (transcriptome) ([2]; sample 3): 0.1702 | VAMP7 expression in tumor tissue (transcriptome) ([2]; sample 3): 0.3548 | ZNF404 expression in tumor tissue (transcriptome) ([2]; sample 3): 0.3567 | ZNF429 expression in tumor tissue (transcriptome) ([2]; sample 3): 0.0501
